Tests used:
[1] = system: rats subjected to chronic restraint stress; test: Sucrose preference test (SPT) after chronic restraint stress (CRS); type: in vivo, rat; settings: 10 days CRS; L-655,708 0.7 mg/kg i.p.; 24 hrs post-injection; vs pre-stress baseline
Source text: (§1) MRK-016 rapidly reverses loss of sucrose preference and social interaction behaviors after chronic restraint stress (FIG. 9). […] This persisted for 7 days despite further stress exposure. and in the same animals after an additional week of CRS and 7 days after the injection of MRK-016.
(§2) Chronic restraint stress (CRS). Male Sprague Dawley rats (4-5 weeks-old; Harlan Laboratories) were placed in appropriately sized restraint tubes, highly restricting their movement for periods of four hours in a brightly lit lab, every day for ten days during the light phase of their diurnal cycle (Lim et al., 2012).
Sucrose preference test (SPT). Rats were given a choice between two bottles containing tap water or a 1% sucrose solution (Rygula et al., 2006). Testing was conducted overnight (16 hours), including the full duration of their dark phase. Animals were first trained with both bottles while group-housed. For subsequent tests, including during the baseline period, animals were individually housed. Sucrose preference was calculated as amount of the sucrose solution consumed as a percentage of the total amount of liquid consumed.
Drugs/stats. L-655,708 was purchased from Tocris Bioscience (R&D Systems, Minneapolis, Minn.) and prepared at a concentration of 5 mM in 75% saline/25% DMSO. […] This dose is sufficient to occupy about 70% of forebrain binding sites (Atack et al., 2005)
(§3) Several hedonic behaviors in rodents are sensitive to chronic stress and are restored by chronic, but not acute, administration of SSRIs, providing one means to screen for potential antidepressant compounds. First, it was determined whether L-655,708 would rapidly (<24 hrs) restore normal hedonic behavior following chronic restraint stress (Watanabe et al., 1992; Lim et al., 2012), consistent with the rapid antidepressant-like actions of ketamine (Li et al., 2011). Baseline measurements were first made of social interaction and sucrose preference, and then 4-5 week old rats were subjected to ten days of CRS. […]

[2] = system: chronically stressed rats; test: Reversal of chronic stress-induced behavioral changes (SPT and SIT; CRS and CUS) overall; type: in vivo, rat
Source text: as §2
Chronic unpredictable stress (CUS). Male Sprague-Dawley rats (4-5 weeks-old; Harlan Laboratories) were randomly divided into control and CUS groups. Rats in the CUS group were individually housed. CUS animals were treated with two mild stressors every day for 5-6 weeks during their light phase (Willner et al., 1987). The stressors were randomly cycled to enhance unpredictability. […]
Sucrose preference test (SPT). […] Sucrose preference was calculated as amount of the sucrose solution consumed as a percentage of the total amount of liquid consumed. […]
as §3, with “2011).” for “2011). Baseline measurements were first made of social interaction and sucrose preference, and then 4-5 week old rats were subjected to ten days of CRS.”

forebrain binding sites = settings: 0.7 mg/kg i.p.; Atack et al., 2005; cited from earlier work
ΔFosB = test: FosB and ΔFosB expression after injection; type: in vivo, rat
Source text: D3. Nestler and colleagues have shown that induction of the transcription factor ΔFosB in D1R-expressing medium spiny neurons in the NAc in response to chronic stress is an important mediator of resilience and may play a role in the antidepressant actions of fluoxetine by changing gene expression and synaptic strength (Perrotti et al., 2004; Lobo et al., 2013; Grueter et al., 2013). It is considered whether alpha5 GABA-NAM injection also affects deltaFosB expression. Control and CRS-susceptible rats receive an injection of L-665, 708. […] Tissue punches are taken from the NAc, area CA1, EC, and PFC and subjected to Western blotting for quantification of deltaFosB levels. Sections are prepared from these same regions and stained for ΔFosB in order to count immunoreactive nuclei with stereological techniques (Vialou et al., 2010). Sections through the ventral striatum are co-stained with an antibody against the D1R, since the expression of ΔFosB in these cells may be particularly important for SSRI actions (Lobo et a/., 2013). Similar to fluoxetine, in specific embodiments in stressed and unstressed animals, alpha5 GABA-NAM affects ΔFosB expression in the NAc and other brain regions, consistent with initial studies (FIG. 5).

[3] = system: rats subjected to chronic restraint stress; test: Social interaction test (SIT) after chronic restraint stress (CRS); type: in vivo, rat; settings: 10 days CRS; L-655,708 0.7 mg/kg i.p.; 24 hrs post-injection; vs baseline
Source text: as §1, §2
Social interaction test (SIT). As described previously (Berton et al., 2006), rats were placed in a plastic enclosure (82×82 cm) with a 5×5 grid of squares (16.4×16.4 cm) visible underneath the clear plastic flooring. A small translucent perforated plastic box (20×16 cm) was placed against the center of one wall of the arena. During the testing conditions white overhead fluorescent lighting was used to illuminate the arena. A video camera positioned 170 cm above the floor of the arena was used to track the movements of the rats during the experiment.
Each test consisted of a “target-absent” trial followed by a “target-present” trial. During testing, an individual test rat was placed in the center of the arena and, after 30s of adaptation, the rat's movements were recorded with the video camera for 2.5 minutes. […]
Results were quantified as the percentage of time spent in the “interaction zone” (the five grid squares immediately surrounding the plastic cage) as measured for both the “target-absent” and “target-present” trials. […]
as §3, with “2011).” for “2011). Baseline measurements were first made of social interaction and sucrose preference, and then 4-5 week old rats were subjected to ten days of CRS.”

For `CCOC(=O)c1ncn2c1[C@@H]1CCCN1C(=O)c1cc(OC)ccc1-2` [L-655,708, ethyl (13aS)-7-methoxy-9-oxo-11, 12,13,13 a-terahydro-9H-imidazo[1,5-a]pyrrolo[2,1-c] [1,4]benzodiazepine-1-carboxylate], the sucrose preference [1] was “not different from their pre-stress baseline”, the “time to reversal of chronic stress-induced depressive-like behavioral changes” value ([2]; CRS and CUS, 0.7 mg/kg i.p., model-independent) was “less than 24 hrs” and the “time to reversal of loss of sucrose preference and decrease in social interaction” value ([2]; single injection, l mg/kg intraperitoneally, CUS and CRS) was ≤ 24 h. The “occupancy of forebrain binding sites” value (forebrain binding sites) was “about 70%”, the “expression of FosB and ΔFosB” value (ΔFosB; 24 hrs after injection) was “No changes were apparent” and the “expression of FosB and ΔFosB in the NAc” value (ΔFosB; unstressed animals, one hour after injection) was “increase”. For the same compound, the social interaction ratio [3] was “not significantly different than baseline”.
